# Assay results from patent publication US20150125452A1, “COMBINATION TREATMENTS COMPRISING C-MET ANTAGONISTS AND B-RAF ANTAGONISTS” (GENENTECH, INC., priority 2011, published 2015).
# Key:
# Type in all cases: cell-based, Human
# [1] = test system: H3122 EML4-ALK translocated NSCLC cancer cell line; assay: Cell viability assay with TAE684 or crizotinib and HGF; details: TAE684, 50 ng/mL HGF, 72 h
# Description: Error bars represent mean+/−s.e.m.
# (§1) Cell viability was assessed using the nucleic acid stain Syto 60 (Invitrogen). Cells (3000-5000 per well) were seeded into 96 well plates and allowed to adhere overnight. The next day, cells were treated with (or without) 50 ng/mL RTK ligand and concomitantly exposed to an increasing concentration range of the relevant kinase inhibitor. […] Cell viability was calculated by dividing the fluorescence obtained from the drug-treated cells by the fluorescence obtained from the control (no drug) treated cells.
# [2] = test system: AU565 HER2 amplified breast cancer cells; assay: Syto 60 viability and long-term staining with lapatinib and ligands
# Description: FIGS. 3A-3G: HGF promoted lapatinib resistance in HER2 amplified cell lines. […] HGF rescue is indicated, black squares indicates partial rescue as determined by the initial screen (FIG. 1B). […] Cells were treated every three days for the indicated times. […] FIG. 3D, Immunoblots showing the re-activation of pAKT and pERK in two MET positive (AU565, HCC1954) and one MET negative (BT474) HER2 amplified cell lines. […] FIG. 3E, Representative slides showing MET expression in HER2 positive (3+) breast cancer tissues. FIG. 3F, selection of higher MET expressing AU565 cells following 3× treatments with lapatinib (1 μM) and HGF (50 ng/mL). FIG. 3G. […] Cells were treated twice weekly for the indicated times.
# AU565 sells were co-treated with lapatinib (1 μM) in combination with 10 ng/mL NRG1 or FGF. […] Cells were treated with the appropriate kinase inhibitors in the presence of HGF (50 ng/mL). Cells were then treated with either 100 nM PI3K inhibitor (BEZ235) or MAPK inhibitor (AZD6244). Error bars represent mean+/−s.e.m.
# Cell viability was assessed using the nucleic acid stain Syto 60 (Invitrogen). Cells (3000-5000 per well) were seeded into 96 well plates and allowed to adhere overnight. The next day, cells were treated with (or without) 50 ng/mL RTK ligand and concomitantly exposed to an increasing concentration range of the relevant kinase inhibitor. Following 72 hours drug exposure, cells were fixed in 4% formaldehyde, stained with Syto 60 and cell number was assessed using an Odyssey scanner (Li-Cor). Cell viability was calculated by dividing the fluorescence obtained from the drug-treated cells by the fluorescence obtained from the control (no drug) treated cells.
# [3] = test system: BRAF mutant melanoma cell lines; assay: Syto 60 cell viability, HGF rescue from PLX[…]; details: additional twelve cell lines
# Description: Cells were treated twice weekly for the indicated times. […] Error bars represent mean+/−s.e.m.
# as §1
# SK-MEL-28 cells = assay: Secreted factor screen, Cell Titer Glo; details: 5 μM PLX[…], 50 ng/mL factor, 72 h, 446 factors
# Description: […] […] […] Error bars represent mean+/−s.e.m.
# Following 72 h incubation, cell viability was determined using Cell Titer Glo (Promega).
substance,measurement,setting,value
HGF: recombinant human RTK ligand (MET ligand) purchased from Peprotech,rescue from ALK inhibition by HGF,[1],efficiently rescued from ALK inhibition
same,MET expression of cell population after co-treatment,[2]; 9-day lapatinib and HGF co-treatment,increased MET expression
same,resistance to lapatinib on longer-term co-treatment,"[2]; 12 days, lapatinib 1 μM, HGF 50 ng/mL",rapidly promoted resistance to lapatinib
same,number of additional BRAF mutant melanoma lines with HGF-attenuated PLX[…] sensitivity,[3],5 of the 12
same,effect of secreted factor on PLX[…] sensitivity,SK-MEL-28 cells,could attenuate PLX4032 sensitivity
